These results are taken from patent publication US6225478A, “Iridoid derivatives and neovascularization inhibitors containing the same as active ingredient” (Tsumura & Co., priority 1999, dated 2001).

Assay [1] relates to human umbilical-vein endothelial cells (HUVEC). Nature of the assay: Tube Formation Assay (TFA) Test, HUVEC in collagen gel. The assay is classed as cell-based. The following applies: Homo sapiens, HUVEC, Tables 75-83; 0.32 mM sample solution; method as for Compounds 1 through 60; read-out: TFA Inhibition rate (%). The procedure, abridged:
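Inhibition rate (%) of tube formation is computed from tube lengths against control (+) and control (-), measured after 20 h at 37 °C in M-199 with 20% FCS, 30 ng/ml b-FGF and 0.1 μM PMA. Samples were applied to HUVEC on collagen and covered by a second collagen layer (double-layer gel).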

The next assay has as its system HUFEC. In words: Cell Migration Assay (CMA) Test, inhibitory rate with control (-) correction. The assay is classed as cell-based, human. The note with it: Homo sapiens, 24 h, 125 μl of 0.32 mM sample solution in 4.0 ml medium, 80% or more = remarkable. A digest of the protocol: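 Confluent HUFEC monolayers were scratch-wounded, then cultured 24 h at 37 °C, 5% CO2 in M199 (2+) medium with compound added as 125 μl of a 0.32 mM solution (3.2% DMSO) per 4 ml. Giemsa-stained cells migrating into 1 mm×1 mm blocks counted; inhibition % calculated relative to control (+) and control (−) wells.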

Take `COC(=O)C1=CO[C@@H](OC(=O)NCCCl)[C@@H]2C(COC(=O)NCCCl)=CC[C@H]12` [I-288]: the inhibition at 320 µM (stock) in assay [1] was 2.4%; with HUFEC, 15.9%.

For `CNC(=O)O[C@@H]1OC=C(C(=O)OC)[C@H]2CC[C@@H](C)[C@@H]12` [I-280], the inhibition at 320 µM (stock) in assay [1] came to 14.9%; with HUFEC it was 72.4%.

Regarding `COC(=O)C1=CO[C@@H](OC(=O)Nc2ccc(Cl)cc2)[C@@H]2C(C)=CC[C@H]12` [I-162], the results for the inhibition at 320 µM (stock) (in assay [1]; with HUFEC) were 7.5% and 8.9%, respectively.

Regarding `COC(=O)C1=CO[C@@H](OC(=O)NCCc2ccc(OC)cc2)[C@@H]2C(C)=CC[C@H]12` [I-98], the values for the inhibition at 320 µM (stock) (in assay [1]; in the assay on HUFEC) were 3.8% and 2.7%, respectively.

`COC(=O)C1=CO[C@@H](OC(=O)N2CC=CCC2)[C@H]2[C@@H]1CC[C@@H]2C` [I-194]: the inhibition at 320 µM (stock) amounted to 3% in assay [1] and 5.5% in the assay on HUFEC.

Take `COC(=O)C1=COC[C@H]2[C@@H]1C[C@@H]1O[C@@]12CO` [I-289]: the results for the inhibition at 320 µM (stock) (in assay [1]; with HUFEC) were 17.1% and 9.4%, respectively.

With `CCCCCCC1CC[C@@H]2C(C(=O)OC)=COC[C@H]12` (stereo partly drawn) [I-294], the inhibition at 320 µM (stock) worked out at 7.8% in assay [1] and 4.5% in the assay on HUFEC.

As to `COC(=O)C1=CO[C@@H](OC(=O)N2CCOCC2)[C@@H]2C(C)=CC[C@H]12` [I-85], the inhibition at 320 µM (stock) in assay [1] came to 15.6%; with HUFEC, 31%.

Consider `CC1=CC[C@@H]2C(C(=O)O)=CO[C@@H](OC(=O)Nc3ccc(F)cc3F)[C@H]12` [I-308], for which the inhibition at 320 µM (stock) was found to be 23.2% in assay [1] and 32.1% with HUFEC.

For the molecule `COC(=O)C1=CO[C@@H](OC(=O)NCCc2ccc(F)cc2)[C@H]2[C@@H]1CC[C@@H]2C` [I-212], the inhibition at 320 µM (stock) in assay [1] came to 7.8%; with HUFEC it was 21.5%.

For the molecule `COC(=O)C1=CO[C@@H](OC(=O)NCCCc2ccccc2)[C@H]2[C@@H]1CC[C@@H]2C` [I-217], the inhibition at 320 µM (stock) was determined as 7.2% in assay [1] and 9.4% in the assay with HUFEC.

Consider `COC(=O)C1=CO[C@@H](OC(=O)NCc2ccc3c(c2)OCO3)[C@@H]2C(C)=CC[C@H]12` [I-129], for which the values for the inhibition at 320 µM (stock) (in assay [1]; with HUFEC) were 19.5% and 4.3%, respectively.

Regarding `CCCCCC[C@]12O[C@H]1C[C@@H]1C(C(=O)OC)=COC[C@@H]12` [I-298], the inhibition at 320 µM (stock) in assay [1] worked out at 9.5%; in the assay with HUFEC, 7.8%.

Regarding `CCN(CCO)C(=O)O[C@@H]1OC=C(C(=O)OC)[C@H]2CC[C@H](C)[C@@H]12` [I-203], the inhibition at 320 µM (stock) in assay [1] amounted to 15.8%; with HUFEC, 5.9%.

For the molecule `COC(=O)C1=CO[C@@H](OC(=O)NCc2ccccc2)[C@@H]2C(C)=CC[C@H]12` [I-80], the inhibition at 320 µM (stock) turned out to be 8.1% in assay [1] and 5.9% in the assay on HUFEC.

On to `COC(=O)C1=CO[C@@H](OC(=O)NC2Cc3ccccc3C2)[C@@H]2C(C)=CC[C@H]12` [I-145], for which the inhibition at 320 µM (stock) in assay [1] turned out to be 17.5%; with HUFEC, 27.3%.

On to `COC(=O)C1=CO[C@@H](OC(=O)Nc2ccc(SC)cc2)[C@@H]2C(C)=CC[C@H]12` [I-172], for which the figures for the inhibition at 320 µM (stock) (in assay [1]; in the assay with HUFEC) were 8.7% and 5.5%, respectively.

Turning to `COC(=O)C1=CO[C@@H](OC(=O)NCCc2cccs2)[C@H]2[C@@H]1CC[C@@H]2C` [I-197], the inhibition at 320 µM (stock) in assay [1] worked out at 4.5%; with HUFEC it was 20%.

For `COC(=O)C1=CO[C@@H](OC(=O)NC(=O)c2ccccc2)[C@@H]2C(C)=CC[C@H]12` [I-153], the inhibition at 320 µM (stock) in assay [1] came to 19%; with HUFEC, 22.3%.

As to `COC(=O)C1=CO[C@@H](OC(=O)Nc2ccc(OC(F)(F)F)cc2)[C@H]2[C@@H]1CC[C@@H]2C` [I-266], the inhibition at 320 µM (stock) in assay [1] came to 4.9%; in the assay on HUFEC, 9.4%.

As for `CNC(=O)OCCN1CCN(C(=O)C2=COC[C@@H]3[C@H](C)CC[C@H]23)CC1` [I-306], the figures for the inhibition at 320 µM (stock) (in assay [1]; in the assay on HUFEC) were 22.6% and 25.1%, respectively.

Take `CCC(CC)NC(=O)O[C@@H]1OC=C(C(=O)OC)[C@H]2CC=C(C)[C@@H]12` [I-102]: the inhibition at 320 µM (stock) in assay [1] worked out at 8.2%; in the assay with HUFEC, 15.6%.

Regarding `COC(=O)C1=CO[C@@H](OC(=O)Nc2cccc(C(C)=O)c2)[C@@H]2C(C)=CC[C@H]12` [I-171], the inhibition at 320 µM (stock) turned out to be 5.8% in assay [1] and 3% in the assay with HUFEC.

Turning to `COC(=O)C1=CO[C@@H](OC(=O)NCCCc2ccccc2)[C@@H]2C(C)=CC[C@H]12` [I-112], the inhibition at 320 µM (stock) in assay [1] came to 7.9%; with HUFEC it was 6.8%.

Take `COC(=O)C1=CO[C@@H](OC(=O)NCCc2ccccn2)[C@@H]2C(C)=CC[C@H]12` [I-79]: the inhibition at 320 µM (stock) in assay [1] was 4.7%; with HUFEC it was 13.7%.

For `CNC(=O)O[C@@H]1OC=C(C(=O)OC)[C@H]2CC=C(CF)C12` (stereo in doubt) [I-314, (1S,4aS,7aR)-7-(fluoromethyl)-1-(methylcarbamoyloxy)-1,4a,5,7a-tetrahydrocyclopenta [c] pyrane-4-carboxylic acid methylester], the inhibition at 320 µM (stock) in assay [1] amounted to 9.4%; with HUFEC, 47.2%.

As to `CNC(=O)O[C@@H]1OC=C(C(=O)O)[C@H]2CC[C@@H](C)[C@@H]12` [I-281], the inhibition at 320 µM (stock) turned out to be 31.1% in assay [1] and 27.9% with HUFEC.

`COC(=O)C1=CO[C@@H](OC(=O)NCCCCl)[C@H]2[C@@H]1CC[C@@H]2C` [I-244]: the inhibition at 320 µM (stock) is 5.2% in assay [1] and 19.5% in the assay with HUFEC.

As for `COC(=O)C1=CO[C@@H](OC(=O)NCc2ccccc2F)[C@H]2[C@@H]1CC[C@@H]2C` [I-231], the inhibition at 320 µM (stock) in assay [1] is 5.9%; with HUFEC it was 9.7%.

Take `COC(=O)C1=CO[C@@H](OC(=O)NCCCl)[C@H]2[C@@H]1CC[C@@H]2C` [I-258]: the inhibition at 320 µM (stock) in assay [1] turned out to be 3.8%; in the assay on HUFEC it was 5.7%.

As for `COC(=O)C1=CO[C@@H](OC(=O)NC(C)C)[C@H]2[C@@H]1CC[C@@H]2C` [I-261], the inhibition at 320 µM (stock) in assay [1] was 32.1%; with HUFEC, 37.5%.

As to `COC(=O)C1=CO[C@@H](OC(=O)NCc2ccco2)[C@H]2[C@@H]1CC[C@@H]2C` [I-215], the figures for the inhibition at 320 µM (stock) (in assay [1]; in the assay with HUFEC) were 8.1% and 21.5%, respectively.

Take `COC(=O)C1=CO[C@@H](OC(=O)NCc2ccc(F)cc2F)[C@@H]2C(C)=CC[C@H]12` [I-77]: the inhibition at 320 µM (stock) in assay [1] was determined as 7.2%; with HUFEC, 5.9%.

On to `CONC(=O)O[C@@H]1OC=C(C(=O)OC)[C@H]2CC=C(C)[C@@H]12` [I-137], for which the inhibition at 320 µM (stock) in assay [1] was found to be 6.4%; in the assay with HUFEC, 3.3%.

With `COC(=O)C1=CO[C@@H](OC(=O)Nc2ccc(OC)cc2)[C@H]2[C@@H]1CC[C@@H]2C` [I-263], the figures for the inhibition at 320 µM (stock) (in assay [1]; in the assay on HUFEC) were 5.5% and 7.2%, respectively.

With `COC(=O)C1=CO[C@@H](OC(=O)NCCS)[C@H]2[C@@H]1CC[C@@H]2C` [I-236], the results for the inhibition at 320 µM (stock) (in assay [1]; in the assay on HUFEC) were 10.4% and 28.1%, respectively.

`COC(=O)C1=CO[C@@H](OC(=O)NCCc2cccc(F)c2)[C@@H]2C(C)=CC[C@H]12` [I-99]: the inhibition at 320 µM (stock) in assay [1] was 8.6%; with HUFEC, 9.9%.

On to `COC(=O)C1=CO[C@@H](OC(=O)N2CC=CCC2)[C@@H]2C(C)=CC[C@H]12` [I-91], for which the inhibition at 320 µM (stock) in assay [1] came out at 5.1%; with HUFEC, 21.6%.

Take `COC(=O)C1=CO[C@@H](OC(=O)Nc2ccc([N+](=O)[O-])cc2)[C@@H]2C(C)=CC[C@H]12` [I-168]: the inhibition at 320 µM (stock) in assay [1] stood at 4.2%; in the assay with HUFEC, 17.2%.

As for `COC(=O)C1=CO[C@@H](OC(=O)N(C)CCN(C)C)[C@@H]2C(C)=CC[C@H]12` [I-86], the values for the inhibition at 320 µM (stock) (in assay [1]; in the assay with HUFEC) were 5.2% and 9.9%, respectively.

For the molecule `COC(=O)C1=CO[C@@H](OC(=O)NCc2cccc(C(F)(F)F)c2)[C@H]2[C@@H]1CC[C@@H]2C` [I-233], the results for the inhibition at 320 µM (stock) (in assay [1]; in the assay with HUFEC) were 4.1% and 5.5%, respectively.

As to `COC(=O)C1=CO[C@@H](OC(=O)NC2Cc3ccccc3C2)[C@H]2[C@@H]1CC[C@@H]2C` [I-247], the inhibition at 320 µM (stock) in assay [1] came out at 9.7%; in the assay with HUFEC, 23.4%.

`COC(=O)C1=CO[C@@H](OC(=O)N2CCN(c3ccccc3F)CC2)[C@@H]2C(C)=CC[C@H]12` [I-149]: the inhibition at 320 µM (stock) in assay [1] amounted to 8.7%; in the assay on HUFEC, 7.5%.

As to `COC(=O)C1=CO[C@@H](OC(=O)NCc2cccc(C(F)(F)F)c2)[C@@H]2C(C)=CC[C@H]12` [I-128], the inhibition at 320 µM (stock) in assay [1] was 9.4%; with HUFEC, 8.7%.

In the case of `COC(=O)C1=CO[C@@H](OC(=O)Nc2ccccc2)[C@@H]2C(C)=CC[C@H]12` [I-170], the inhibition at 320 µM (stock) in assay [1] amounted to 12.9%; in the assay on HUFEC, 6.7%.

For the molecule `COC(=O)C1=CO[C@@H](OC(=O)N2CCCCC2)[C@@H]2C(C)=CC[C@H]12` [I-111], the values for the inhibition at 320 µM (stock) (in assay [1]; in the assay with HUFEC) were 2.9% and 9.4%, respectively.

In the case of `C=CCN(CC=C)C(=O)O[C@@H]1OC=C(C(=O)OC)[C@H]2CC[C@H](C)[C@@H]12` [I-230], the inhibition at 320 µM (stock) was 6.4% in assay [1] and 28.7% in the assay on HUFEC.

Take `COC(=O)C1=CO[C@@H](OC(=O)NCC(C)C)[C@@H]2C(C)=CC[C@H]12` [I-87]: the inhibition at 320 µM (stock) stood at 8.6% in assay [1] and 8% in the assay with HUFEC.

For orientation: inhibition means the drop in the measured response relative to a control, in per cent.
